According to patent publication US12398154B2, “Azaquinazoline pan-KRas inhibitors” (Mirati Therapeutics, Inc., priority 2020, dated 2025):

How the values were obtained:
KRas G13D = target: T1, KRas G13D (Homo sapiens, UniProt P01116, G13D); assay: KRas binding assay (TR-FRET displacement);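 further: One-hour room temperature incubation before TR-FRET reading, IC50 from a four-parameter curve fit to percent-of-control data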
T1 construct: Biotinylated KRas (corresponding to amino acids 1-169, produced at Accelegan Inc.); biotin (biotinylated); purchased Accelegan Inc
Method: (§1) The ability of a compound to bind to KRas was measured using a TR-FRET displacement assay. […] After a 60-minute incubation at room temperature, the reaction was measured using a BMG LABTECH CLARIO star Plus via TR-FRET. […] The POC values were fit to a 4-parameter IC50 equation and the IC50 value reported.

KRas G12C = KRas G12C (Homo sapiens, UniProt P01116, G12C); assay: biochemical;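 further: binding to KRas assessed by TR-FRET displacement after one hour incubation at room temperature, potency fitted from percent-of-control values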
Method: as §1

KRas G12D = KRas G12D (Homo sapiens, UniProt P01116, G12D); assay: biochemical;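 further: TR-FRET displacement binding assay on KRas, read after a one-hour incubation at room temperature, IC50 fitted from percent-of-control values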
Method: as §1

KRas G12V = KRas G12V (Homo sapiens, UniProt P01116, G12V); assay: biochemical;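 further: KRas binding measured by TR-FRET displacement at room temperature, IC50 fitted from percent of control values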
Method: as §1

KRas G12R = KRas G12R (Homo sapiens, UniProt P01116, G12R); assay: biochemical;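 further: TR-FRET displacement assay of compound binding to KRas, read after one hour at room temperature, potency from a four-parameter fit of percent-of-control values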
Method: as §1

KRas G12A = KRas G12A (Homo sapiens, UniProt P01116, G12A); assay: biochemical;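 further: binding to KRas measured by TR-FRET displacement after one hour at room temperature, IC50 from a four-parameter fit of percent-of-control values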
Method: as §1

KRas Q61H = target: T2, KRas Q61H (Homo sapiens, UniProt P01116, Q61H); assay: KRas binding assay (TR-FRET displacement);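 further: TR-FRET signal read after one hour at room temperature, IC50 derived by four-parameter fitting of percent-of-control values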
T2 construct: Biotinylated KRas (corresponding to amino acids 1-169, produced at Accelegan Inc.); biotin (biotinylated); purchased Accelegan Inc
Method: as §1

KRas G12S = KRas G12S (Homo sapiens, UniProt P01116, G12S); assay: biochemical;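 further: TR-FRET displacement binding to KRas, read after one hour incubation at room temperature, IC50 from four-parameter fit of percent of control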
Method: as §1

KRas WT = KRas WT (Homo sapiens, UniProt P01116); assay: biochemical;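 further: binding to KRas read as TR-FRET displacement after a one-hour room-temperature incubation, IC50 derived from percent-of-control values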
Chain of KRas WT (P01116 1-169 isoform P01116-2): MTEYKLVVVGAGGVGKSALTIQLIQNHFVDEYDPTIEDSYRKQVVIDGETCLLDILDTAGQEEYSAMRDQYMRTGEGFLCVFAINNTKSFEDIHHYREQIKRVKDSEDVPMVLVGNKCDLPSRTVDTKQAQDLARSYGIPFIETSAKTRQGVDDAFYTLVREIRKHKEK
Method: as §1

T2 sequence (P01116 1-169 isoform P01116-2 Q61H): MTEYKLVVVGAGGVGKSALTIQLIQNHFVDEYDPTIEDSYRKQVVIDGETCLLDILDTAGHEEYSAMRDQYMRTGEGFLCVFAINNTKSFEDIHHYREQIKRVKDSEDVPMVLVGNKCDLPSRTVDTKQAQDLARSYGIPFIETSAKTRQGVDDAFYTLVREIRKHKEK
T1 sequence (P01116 1-169 isoform P01116-2 G13D): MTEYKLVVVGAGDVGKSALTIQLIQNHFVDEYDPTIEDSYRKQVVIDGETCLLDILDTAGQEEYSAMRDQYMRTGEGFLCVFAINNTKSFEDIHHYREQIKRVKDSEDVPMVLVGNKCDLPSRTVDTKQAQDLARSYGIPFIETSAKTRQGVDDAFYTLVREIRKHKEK
Chain of KRas G12D (P01116 1-169 isoform P01116-2 G12D): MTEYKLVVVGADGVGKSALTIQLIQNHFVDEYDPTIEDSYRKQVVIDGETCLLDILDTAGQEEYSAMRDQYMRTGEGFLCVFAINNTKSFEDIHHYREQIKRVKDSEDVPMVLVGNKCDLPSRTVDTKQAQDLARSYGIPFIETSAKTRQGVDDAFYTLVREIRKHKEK
Chain of KRas G12R (P01116 1-169 isoform P01116-2 G12R): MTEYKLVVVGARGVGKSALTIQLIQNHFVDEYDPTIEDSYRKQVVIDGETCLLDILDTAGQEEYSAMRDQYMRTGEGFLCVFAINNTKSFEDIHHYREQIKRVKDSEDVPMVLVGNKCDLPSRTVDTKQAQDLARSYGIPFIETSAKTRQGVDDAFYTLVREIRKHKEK
Chain of KRas G12A (P01116 1-169 isoform P01116-2 G12A): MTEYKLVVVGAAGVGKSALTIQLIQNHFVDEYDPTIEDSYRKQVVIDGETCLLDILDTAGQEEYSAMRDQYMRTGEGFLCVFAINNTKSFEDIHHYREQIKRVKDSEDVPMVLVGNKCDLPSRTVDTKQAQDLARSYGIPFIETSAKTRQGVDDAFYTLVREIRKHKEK
Chain of KRas G12S (P01116 1-169 isoform P01116-2 G12S): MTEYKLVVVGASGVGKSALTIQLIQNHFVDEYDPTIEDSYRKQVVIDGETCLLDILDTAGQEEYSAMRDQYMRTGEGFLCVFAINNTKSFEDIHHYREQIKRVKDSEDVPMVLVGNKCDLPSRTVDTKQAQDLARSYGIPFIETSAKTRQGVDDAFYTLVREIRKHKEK
Chain of KRas G12V (P01116 1-169 isoform P01116-2 G12V): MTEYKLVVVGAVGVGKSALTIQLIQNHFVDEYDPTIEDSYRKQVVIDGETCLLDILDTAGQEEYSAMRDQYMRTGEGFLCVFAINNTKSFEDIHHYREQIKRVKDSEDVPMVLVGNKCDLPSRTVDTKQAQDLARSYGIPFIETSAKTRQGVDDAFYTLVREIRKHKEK
Chain of KRas G12C (P01116 1-169 isoform P01116-2 G12C): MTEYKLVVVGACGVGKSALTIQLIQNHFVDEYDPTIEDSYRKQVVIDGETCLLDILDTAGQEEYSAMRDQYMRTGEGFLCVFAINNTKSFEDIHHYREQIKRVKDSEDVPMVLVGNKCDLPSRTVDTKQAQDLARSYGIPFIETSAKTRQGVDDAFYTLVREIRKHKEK

Row | SMILES | IC50 (KRas G13D) | IC50 (KRas G12C) | IC50 (KRas G12D) | IC50 (KRas G12V) | IC50 (KRas G12R) | IC50 (KRas G12A) | IC50 (KRas Q61H) | IC50 (KRas G12S) | IC50 (KRas WT)
1 | O=c1ccc(CNc2nc(OCC34CCCN3CCC4)nc3c(F)c(-c4cccc5cccc(F)c45)ncc23)c[nH]1 [Example 96, 5-(((8-fluoro-7-(8-fluoronaphthalen-1-yl)-2-((hexahydro-1H-pyrrolizin-7a-yl)methoxy)pyrido[4,3-d]pyrimidin-4-yl)amino)methyl)pyridin-2 (1H)-one] | 10700 nM | 1.95 µM | 62.9 µM | 1.94 µM | 3.19 µM | 2.5 µM | 22100 nM | 3.23 µM | 5.71 µM
2 | O=C1CC2(CCCN(c3nc(OCC45CCCN4CCC5)nc4c(F)c(-c5cccc6cccc(F)c56)ncc34)C2)N1 (stereo not drawn) [Example 97, 6-(8-fluoro-7-(8-fluoronaphthalen-1-yl)-2-((hexahydro-1H-pyrrolizin-7a-yl)methoxy)pyrido[4,3-d]pyrimidin-4-yl)-1,6-diazaspiro[3.5]nonan-2-one] | 297 nM | 0.192 µM | 0.175 µM | 0.189 µM | 0.348 µM | 0.227 µM | 412 nM | 0.272 µM | 0.333 µM
3 | O=C1NCC12CCCN(c1nc(OCC34CCCN3CCC4)nc3c(F)c(-c4cccc5cccc(F)c45)ncc13)C2 (stereo not drawn) [Example 98, 6-(8-fluoro-7-(8-fluoronaphthalen-1-yl)-2-((tetrahydro-1H-pyrrolizin-7a(5H)-yl)methoxy)pyrido[4,3-d]pyrimidin-4-yl)-2,6-diazaspiro[3.5]nonan-1-one] | 3210 nM | 2.84 µM | 1.89 µM | 3.01 µM | 6.42 µM | 2.91 µM | 4770 nM | 4.01 µM | 3.36 µM
4 | Cn1ncc2ccc(Nc3nc(OCC45CCCN4CCC5)nc4c(F)c(-c5cccc6cccc(F)c56)ncc34)cc21 [Example 99, 8-fluoro-7-(8-fluoronaphthalen-1-yl)-2-((hexahydro-1H-pyrrolizin-7a-yl)methoxy)-N-(1-methyl-1H-indazol-6-yl)pyrido[4,3-d]pyrimidin-4-amine] | 59800 nM | 8.33 µM | ≥ 100 µM | 3.97 µM | 16.7 µM | 13.6 µM | 98500 nM | 21.7 µM | 32.4 µM
5 | Fc1c(-c2cccc3cccc(F)c23)ncc2c(Nc3ccc4[nH]ncc4c3)nc(OCC34CCCN3CCC4)nc12 [Example 100, 8-fluoro-7-(8-fluoronaphthalen-1-yl)-2-((hexahydro-1H-pyrrolizin-7a-yl)methoxy)-N-(1H-indazol-5-yl)pyrido[4,3-d]pyrimidin-4-amine] | 49300 nM | 39.9 µM | 11.8 µM | 17.3 µM | ≥ 100 µM | 50.4 µM | 42000 nM | 28.8 µM | 40.3 µM
6 | Fc1c(-c2cccc3cccc(Cl)c23)ncc2c(N3CC(n4ccnc4)C3)nc(OCC34CCCN3CCC4)nc12 [Example 101, 4-(3-(1H-imidazol-1-yl)azetidin-1-yl)-7-(8-chloronaphthalen-1-yl)-8-fluoro-2-((tetrahydro-1H-pyrrolizin-7a(5H)-yl)methoxy)pyrido[4,3-d]pyrimidine] | 4230 nM | 0.679 µM | 15.3 µM | 0.966 µM | 0.615 µM | 0.994 µM | 2580 nM | 1.34 µM | 3.03 µM
7 | O=C1CC(CNc2nc(OCC34CCCN3CCC4)nc3c(F)c(-c4cccc5cccc(Cl)c45)ncc23)CN1 (stereo not drawn) [Example 102, 4-(((7-(8-chloronaphthalen-1-yl)-8-fluoro-2-((tetrahydro-1H-pyrrolizin-7a(5H)-yl)methoxy)pyrido[4,3-d]pyrimidin-4-yl)amino)methyl)pyrrolidin-2-one] | 769 nM | 0.399 µM | 2.29 µM | 0.365 µM | 0.479 µM | 0.634 µM | 1180 nM | 0.191 µM | 1.17 µM
8 | Oc1nc(CCCNc2nc(OCC34CCCN3CCC4)nc3c(F)c(-c4cccc5cccc(Cl)c45)ncc23)n[nH]1 [Example 103, 3-(3-((7-(8-chloronaphthalen-1-yl)-8-fluoro-2-((tetrahydro-1H-pyrrolizin-7a(5H)-yl)methoxy)pyrido[4,3-d]pyrimidin-4-yl)amino)propyl)-1H-1,2,4-triazol-5-ol] | 4210 nM | 1.89 µM | 15.5 µM | 1.83 µM | 1.5 µM | 2.09 µM | 4940 nM | 2.45 µM | 3.95 µM
9 | Fc1c(-c2cccc3cccc(Cl)c23)ncc2c(N3CCCC3c3cn[nH]c3)nc(OCC34CCCN3CCC4)nc12 (stereo not drawn) [Example 104, 4-(2-(1H-pyrazol-4-yl)pyrrolidin-1-yl)-7-(8-chloronaphthalen-1-yl)-8-fluoro-2-((tetrahydro-1H-pyrrolizin-7a(5H)-yl)methoxy)pyrido[4,3-d]pyrimidine] | 3640 nM | 2.3 µM | 7.61 µM | 2.87 µM | 2.82 µM | 1.74 µM | 3210 nM | 2.02 µM | 2.33 µM
10 | OCc1n[nH]c(CNc2nc(OCC34CCCN3CCC4)nc3c(F)c(-c4cccc5cccc(Cl)c45)ncc23)n1 [Example 105, (5-(((7-(8-chloronaphthalen-1-yl)-8-fluoro-2-((tetrahydro-1H-pyrrolizin-7a(5H)-yl)methoxy)pyrido[4,3-d]pyrimidin-4-yl)amino)methyl)-1H-1,2,4-triazol-3-yl)methanol] | 13800 nM | 3.51 µM | 9.05 µM | 2.81 µM | 5.92 µM | 6.7 µM | 13800 nM | 5.75 µM | 8.01 µM
11 | OC1CC2CC(C1)N(c1nc(OCC34CCCN3CCC4)nc3c(F)c(-c4cccc5cccc(Cl)c45)ncc13)C2 (stereo not drawn) [Example 106, 6-(7-(8-chloronaphthalen-1-yl)-8-fluoro-2-((tetrahydro-1H-pyrrolizin-7a(5H)-yl)methoxy)pyrido[4,3-d]pyrimidin-4-yl)-6-azabicyclo[3.2.1]octan-3-ol] | 2340 nM | 1.13 µM | 3.63 µM | 0.612 µM | 1.51 µM | 0.722 µM | 2340 nM | 0.369 µM | 2.1 µM

Other lines, results leading:

Row | IC50 (KRas G13D) | IC50 (KRas G12C) | IC50 (KRas G12D) | IC50 (KRas G12V) | IC50 (KRas G12R) | IC50 (KRas G12A) | IC50 (KRas Q61H) | IC50 (KRas G12S) | IC50 (KRas WT) | SMILES
12 | 8790 nM | 3.52 µM | 10.8 µM | 3.41 µM | 4.62 µM | 6.52 µM | 8780 nM | 6.85 µM | 8.53 µM | NC(=O)N1CC(Nc2nc(OCC34CCCN3CCC4)nc3c(F)c(-c4cccc5cccc(Cl)c45)ncc23)C1 [Example 107, 3-((7-(8-chloronaphthalen-1-yl)-8-fluoro-2-((tetrahydro-1H-pyrrolizin-7a(5H)-yl)methoxy)pyrido[4,3-d]pyrimidin-4-yl)amino)azetidine-1-carboxamide]
13 | 4340 nM | 4.25 µM | 10.2 µM | 7.43 µM | 4.11 µM | 4.28 µM | 4940 nM | 7.39 µM | 3.99 µM | Fc1c(-c2cccc3cccc(Cl)c23)ncc2c(N3CCCC(n4cccn4)C3)nc(OCC34CCCN3CCC4)nc12 (stereo not drawn) [Example 109, 4-(3-(1H-pyrazol-1-yl)piperidin-1-yl)-7-(8-chloronaphthalen-1-yl)-8-fluoro-2-((tetrahydro-1H-pyrrolizin-7a(5H)-yl)methoxy)pyrido[4,3-d]pyrimidine]
14 | 9330 nM | 5.22 µM | 26.9 µM | 3.97 µM | 2.48 µM | 9.28 µM | 10100 nM | 4.37 µM | 8.81 µM | O=C1NCC(CNc2nc(OCC34CCCN3CCC4)nc3c(F)c(-c4cccc5cccc(F)c45)ncc23)O1 (stereo not drawn) [Example 110, 5-(((8-fluoro-7-(8-fluoronaphthalen-1-yl)-2-((tetrahydro-1H-pyrrolizin-7a(5H)-yl)methoxy)pyrido[4,3-d]pyrimidin-4-yl)amino)methyl)oxazolidin-2-one]
15 | 13300 nM | 27.5 µM | 37.5 µM | 25.9 µM | 28.1 µM | 25.3 µM | 20700 nM | 31 µM | 36.6 µM | C[C@@H]1C[C@@H](O)CN(c2nc(OCC34CCCN3CCC4)nc3c(F)c(-c4cccc5cccc(F)c45)ncc23)C1 [Example 112, (3R,5R)-1-(8-fluoro-7-(8-fluoronaphthalen-1-yl)-2-((tetrahydro-1H-pyrrolizin-7a(5H)-yl)methoxy)pyrido[4,3-d]pyrimidin-4-yl)-5-methylpiperidin-3-ol]
16 | 12100 nM | 7.11 µM | 14.2 µM | 12 µM | 16 µM | 9.48 µM | 12200 nM | 10.6 µM | 8.47 µM | OCC1CCCN(c2nc(OCC34CCCN3CCC4)nc3c(F)c(-c4cccc5cccc(F)c45)ncc23)C1 (stereo not drawn) [Example 113, (1-(8-fluoro-7-(8-fluoronaphthalen-1-yl)-2-((tetrahydro-1H-pyrrolizin-7a(5H)-yl)methoxy)pyrido[4,3-d]pyrimidin-4-yl)piperidin-3-yl)methanol]
